Patent US9856218B2, “Inhibitors of PRMT5 and methods of their use” (Ohio State Innovation Foundation, priority 2013, dated 2018)

How the values were obtained:
[1] = test system: Mantle cell lymphoma cell line Jeko; assay: MTS anti-proliferation assay; type: cell-based
Protocol: MTS proliferation assays were performed according the CellTiter 96™ Aqueous Cell Proliferation Assay Technical Bulletin (Promega, Madison, Wis.). 5×10^5 cells were plated in each well of a 96-well plate at 37° C. and assayed for proliferation at 24, 48, and 72 hr. Proliferation signal at 50% of control was used as IC50 for growth.
Following the synthesis of 14 compounds, the anti-proliferation and pro-apoptotic activities of those compounds was evaluated in Mantle cell lymphoma cell line Jeko. Replicate cultures of Jeko were incubated in DMSO and the compounds for 24, 48 and 72 hours. FITC-Annexin V-PI stained flow cytometry was used to detect the apoptotic population of cells (Table 4).

[2] = 24 hr Quick MTD test, one mouse for each dose; type: in vivo
Protocol: Controlled shRNA depletion was evaluated in a murine lymphoma model (Eμ-BRD2 (Chung, J., et al. (2013) J. Biological Chemistry 288, 35534-35547)) and human xenograft model of glioblastoma (Yan, F., et al (2014) Cancer Research In Press). Referring to FIG. 62A, controlled expression of a PRMT5 shRNA (solid line) but not control shRNA (dashed line) leads to 100% survival of mice engrafted primary DLBCL tumor cells. […] The maximum tolerated dose (MTD, single dose) was identified at 50 mg/kg (see Table 11 below). A sub-toxic dose (25 mg/kg) was used to treat FcMCL mice. Control mice developed peripheral blood and lymph node tumor burden starting day 20 post-engraftment.

CCn1c2ccccc2c2cc(CNCc3ccccc3OC)ccc21 [HLCL-61]
IC50 ([1]; 24 h incubation): 44 µM
IC50 ([1]; 48 h incubation): 29 µM
IC50 ([1]; 72 h incubation): 28 µM
survival after dosing ([2]; IV-2.5 mg/kg, one mouse): Alive 24 hr after
survival after dosing ([2]; mouse, in vivo, ip, 50 mg/kg, 24 h): Alive 24 hr after
clinical signs after dosing ([2]; mouse, in vivo, ip, 100 mg/kg): still slow moving
survival after dosing ([2]; mouse, in vivo, ip, 200 mg/kg, 24 h): Dead within 30 min
survival after dosing ([2]; mouse, in vivo, iv, 5 mg/kg, 24 h): Alive 24 hr after
clinical signs after dosing (slow moving) ([2]; mouse, in vivo, iv, 10 mg/kg): dosing but slow
survival after dosing ([2]; mouse, in vivo, iv, 10 mg/kg, 24 h): Alive 24 hr after
survival after dosing ([2]; mouse, in vivo, iv, 20 mg/kg): Dead instantly after
